Holding throughout (type): cell-based, human
For one test, the system named is A549 (LC). The test is described as follows: MTT cell viability, A549. As to conditions: 48 h / 24 hours, relative IC50. As for the experimental part:
(§1) Cell culture: In the following examples, unless otherwise specified, all cell lines are purchased from American Type Culture Collection and cultured in American Type Culture Collection (ATCC)-recommended media, with fetal bovine serum (FBS) to a final concentration of 10% and 1×penicillin/streptomycin at 37° C. with 5% CO2 in a cell culture incubator, unless otherwise specified. Unless otherwise specified, culture is 2D. Where culture is 3D, low attachment plates are used, with the same media. C4-2B (parental cell line and drug-resistant cells derived therefrom) are cultured in RPMI-1640 with 10% FBS. MDVR cells (an Enzalutamide-resistant variety of C4-2B prostate cancer cells formed as described in Example 4 below) are cultured as indicated for the parental C4-2B cells. 22RV1 Prostate Cancer (PC) cells (ATCC® CRL-2505™, a human prostate carcinoma cell line of epithelial morphology) are cultured in RPMI-1640 with 10% FBS. A549 cells (ATCC® CCL-185™, a human lung carcinoma cell line of epithelial morphology) are cultured in F-12K medium with 10% FBS. A549/DDP cells (Cells were described in DOI: 10.3892/mmr.2014.2163 and in doi: 10.7150/jca.19426; cisplatin resistant cells may be established from exposing parental A549 cells to cisplatin for an extended time). MDR A549/cisplatin lung adenocarcinoma cell line, drug resistant) are cultured in F-12K medium with 10% FBS. H1975 cells (ATCC® CRL-5908™, a human adenocarcinoma non-small cell lung cancer cell line of epithelial morphology) are cultured in RPMI-1640 medium with 10% FBS; H1975 cells are a cell model for human lung cancer that is resistant to Gefitinib (an EGFR inhibitor drug used for treatment of certain breast, lung and other cancers). H1650 cells (ATCC® CRL-5883™, a adenocarcinoma/bronchoalveolar carcinoma lung cancer cell line of epithelial morphology) are cultured in RPMI-1640 medium with 10% FBS. […]

Another test relates to A549DDP (LC). The test is described as follows: MTT cell viability, A549DDP. To be noted: 48 h / 24 hours, relative IC50. As for the experimental part:
as §1
[…] For each cell line, the IC50 is determined for each drug, i.e. the ELSD, the ALSD, and for the corresponding unconjugated statin (Simvastatin), in concentrations from 0.1-100 μM. […]

A further test has as its system H1975 (LC). The test is described as follows: MTT cell viability, H1975. To be noted: relative IC50. The method, then: as §1
The next test deals with H1650 (LC). The test is described as follows: MTT cell viability, H1650. As to conditions: relative IC50. The method, then:
as §1

The subject of another test is PC9 (LC). Kind of test: MTT cell viability, PC9. To be noted: 48 h / 24 hours, relative IC50. As for the experimental part: as §1
For another test, the system named is H446 (LC). Kind of test: MTT cell viability, H446. To be noted: relative IC50. The method, then: as §1
For test [1], the system named is 22RV1 prostate cancer cells. Kind of test: Cell viability by trypan blue counting, 22RV1. To be noted: read-out: IC50 for reduction of cell viability/growth inhibition. As for the experimental part: Cell culture: In the following examples, unless otherwise specified, all cell lines are purchased from American Type Culture Collection and cultured in American Type Culture Collection (ATCC)-recommended media, with fetal bovine serum (FBS) to a final concentration of 10% and 1×penicillin/streptomycin at 37° C. with 5% CO2 in a cell culture incubator, unless otherwise specified. Unless otherwise specified, culture is 2D. Where culture is 3D, low attachment plates are used, with the same media. C4-2B (parental cell line and drug-resistant cells derived therefrom) are cultured in RPMI-1640 with 10% FBS. MDVR cells (an Enzalutamide-resistant variety of C4-2B prostate cancer cells formed as described in Example 4 below) are cultured as indicated for the parental C4-2B cells. 22RV1 Prostate Cancer (PC) cells (ATCC® CRL-2505™, a human prostate carcinoma cell line of epithelial morphology) are cultured in RPMI-1640 with 10% FBS. […]
Example 1B: Prostate Cancer (PC) cells (22RV1, ATCC® CRL-2505™, a human prostate carcinoma cell line) are cultured according to the standard protocol, and exposed for 24-48 hours, to 0-50 μM of the respective compound (THSD, unconjugated dye). Cell viability is determined by counting viable cells and dead cells after treatment of the cells with trypan blue dye to distinguish viable from dead cells. […]

Like-named read-outs stand apart in the source and are kept apart here.

Regarding `CC1(C)C(/C=C/C2=C(Cl)C(=C/C=C3/N(CCCCCC(=O)O)c4ccccc4C3(C)C)/CCC2)=[N+](CCCCS(=O)(=O)[O-])c2ccccc21` [DZ1], the IC50 in the test with A549 (LC), in the test with A549DDP (LC), with H1975 (LC) (48 h / 24 hours), in the test with H1650 (LC) (48 h / 24 hours), in the test with PC9 (LC) and in the test with H446 (LC) (48 h / 24 hours) was over 50 µM in each case.
Consider `CCC(C)(C)C(=O)O[C@H]1C[C@@H](C)C=C2C=C[C@H](C)[C@H](CC[C@@H]3C[C@@H](O)CC(=O)O3)[C@H]21` [Simvastatin], for which the IC50 in test [1] (22RV1, exposed 24-48 hours, listed as unconjugated statin) was over 50 µM; in test [1] (Homo sapiens, 22Rv1, 22RV1, exposed 24-48 hours), over 60 µM; with A549 (LC) (Homo sapiens), over 50 µM; with A549DDP (LC) (Homo sapiens, A549/DDP), 30 µM; in the test with H1975 (LC) (Homo sapiens, NCI-H1975, 48 h / 24 hours), over 50 µM; in the test on H1650 (LC) (Homo sapiens, NCI-H1650, 48 h / 24 hours), 33.3 µM. The IC50 in the test with PC9 (LC) (Homo sapiens) was 33 µM; with H446 (LC) (Homo sapiens, NCI-H446, 48 h / 24 hours), 39 µM.

For the origin of these results see patent publication US20230116399A1, “Tumor Homing Statin Derivatives” (Da Zen Theranostics, Inc., priority 2019, published 2023).
